# Reference: US20210130346A1, “Bromodomain Inhibitors” (AbbVie Inc., priority 2017, published 2021)
# Molecular target: BRD4 (BDI_K57-E168) (Homo sapiens, UniProt O60885)
# Assay: TR-FRET bromodomain binding assay, BRD4 first bromodomain (BDI)
# Conditions: mean Ki; 12 nM His tagged BRD4 (BDI_K57-E168), 100 nM Alexa647 probe; Ki calculated from IC50, probe Kd and probe concentration
# Experimental: A time-resolved fluorescence resonance energy transfer (TR-FRET) assay was used to determine the affinities of compounds of the Examples listed in Table 1 for each bromodomain of BRD4. […] An Alexa647-labeled BET-inhibitor was used as the fluorescent probe in the assay.
# Compound dilution series were prepared in DMSO via an approximately 3-fold serial dilution. Compound dilutions were added directly into white, low-volume assay plates (Perkin Elmer Proxiplate 384 Plus# 6008280) using a Labcyte Echo in conjunction with Labcyte Access and Thermo Multidrop CombinL robotics. Compounds were then suspended in eight microliters (μL) of assay buffer (20 mM Sodium Phosphate, pH 6.0, 50 mM NaCl, 1 mM Ethylenediaminetetraacetic acid disodium salt dihydrate, 0.01% Triton X-100, 1 mM DL-Dithiothreitol) containing His-tagged bromodomain, Europium-conjugated anti-His antibody (Invitrogen PV5596) and Alexa-647-conjugated probe.
# After a one-hour equilibration at room temperature, TR-FRET ratios were determined using an Envision multilabel plate reader (Ex 340, Em 495/520).
# TR-FRET data were normalized to the means of 24 no-compound controls (“high”) and 8 controls containing 1 μM un-labeled probe (“low”). Percent inhibition was plotted as a function of compound concentration and the data were fit with the 4 parameter logistic equation to obtain IC50s. Inhibition constants (Ki) were calculated from the IC50s, probe Kd and probe concentration.
row,Ki [nM],SMILES
1,7430,"Cn1cc([C@@H]2C[C@@]23C(=O)N(Cc2ccc(N)cc2)c2ccccc23)c2cc(C(=O)NC3CC3)[nH]c2c1=O (racemic) [Example 28, rac-4-{(1R,2S)-1′-[(4-aminophenyl)methyl]-2′oxo-1′,2′-dihydrospiro[cyclopropane-1,3′-indol]-2-yl}-N-cyclopropyl-6-methyl-7-oxo-6,7-dihydro-1H-pyrrolo [2,3-c]pyridine-2-carboxamide]"
2,4840,"CN1C(=O)[C@@]2(C[C@H]2c2cn(C)c(=O)c3[nH]c(C(=O)NC4CC4)cc23)c2cccc(Br)c21 (racemic) [Example 29, rac-4-[(1R,2S)-7′-bromo-1′-methyl-2′-oxo-1′,2′-dihydrospiro[cyclopropane-1,3′-indol]-2-yl]-N-cyclopropyl-6-methyl-7-oxo-6,7-dihydro-1H-pyrrolo[2,3-c]pyridine-2-carboxamide]"
3,3440,"CN1C(=O)[C@@]2(C[C@H]2c2cn(C)c(=O)c3[nH]ccc23)c2ccccc21 (racemic) [Example 30, rac-(1R,2S)-1′-methyl-2-(6-methyl-7-oxo-6,7-dihydro-1H-pyrrolo[2,3-c]pyridin-4-yl)spiro[cyclopropane-1,3′-indol]-2′(1H)-one]"
4,811,"CN1C(=O)[C@@]2(C[C@H]2c2cn(C)c(=O)c3[nH]c(C4CC4)cc23)c2ccccc21 (racemic) [Example 31, rac-(1R,2S)-2-(2-cyclopropyl-6-methyl-7-oxo-6,7-dihydro-1H-pyrrolo[2,3-c]pyridin-4-yl)-1′-methylspiro[cyclopropane-1,3′-indol]-2′(1H)-one]"
5,2410,"CN1C(=O)[C@@]2(C[C@H]2c2cn(C)c(=O)c3[nH]c(C4CN(C(=O)OC(C)(C)C)C4)cc23)c2ccccc21 (racemic) [Example 32, rac-tert-butyl 3-{6-methyl-4-[(1R,2S)-1′-methyl-2′oxo-1′,2′-dihydrospiro[cyclopropane-1,3′-indol]-2-yl]-7-oxo-6,7-dihydro-1H-pyrrolo [2,3-c]pyridin-2-yl}azetidine-1-carboxylate]"
6,531,"CN1C(=O)[C@@]2(C[C@H]2c2cn(C)c(=O)c3[nH]c(-c4cnn(C)c4)cc23)c2ccccc21 (racemic) [Example 33, rac-(1R,2S)-1′-methyl-2-[6-methyl-2-(1-methyl-1H-pyrazol-4-yl)-7-oxo-6,7-dihydro-1H-pyrrolo[2,3-c]pyridin-4-yl]spiro[cyclopropane-1,3′-indol]-2′(1H)-one]"
7,> 13000,"Cc1nn(C)cc1-c1cc2c([C@@H]3C[C@@]34C(=O)N(C)c3ccccc34)cn(C)c(=O)c2[nH]1 (racemic) [Example 36, rac-(1R,2S)-2-[2-(1,3-dimethyl-1H-pyrazol-4-yl)-6-methyl-7-oxo-6,7-dihydro-1H-pyrrolo[2,3-c]pyridin-4-yl]-1′-methylspiro[cyclopropane-1,3′-indol]-2′(1H)-one]"
8,1250,"CN1C(=O)[C@@]2(C[C@H]2c2cn(C)c(=O)c3[nH]c(-c4cc[nH]n4)cc23)c2ccccc21 (racemic) [Example 37, rac-(1R,2S)-1′-methyl-2-[6-methyl-7-oxo-2-(1H-pyrazol-3-yl)-6,7-dihydro-1H-pyrrolo[2,3-c]pyridin-4-yl]spiro[cyclopropane-1,3′-indol]-2′(1H)-one]"
9,> 13000,"CN1C(=O)[C@@]2(C[C@@H]2c2cn(C)c(=O)c3[nH]c(-c4cc[nH]n4)cc23)c2ccccc21 (racemic) [Example 38, rac-(1R,2R)-1′-methyl-2-[6-methyl-7-oxo-2-(1H-pyrazol-3-yl)-6,7-dihydro-1H-pyrrolo[2,3-c]pyridin-4-yl]spiro[cyclopropane-1,3′-indol]-2′(1H)-one]"
10,885,"Cc1cc(-c2cc3c([C@@H]4C[C@@]45C(=O)N(C)c4ccccc45)cn(C)c(=O)c3[nH]2)on1 (racemic) [Example 39, rac-(1R,2S)-1′-methyl-2-[6-methyl-2-(3-methyl-1,2-oxazol-5-yl)-7-oxo-6,7-dihydro-1H-pyrrolo[2,3-c]pyridin-4-yl]spiro[cyclopropane-1,3′-indol]-2′(1H)-one]"
11,> 13000,"Cc1cc(-c2cc3c([C@H]4C[C@@]45C(=O)N(C)c4ccccc45)cn(C)c(=O)c3[nH]2)on1 (racemic) [Example 40, rac-(1R,2R)-1′-methyl-2-[6-methyl-2-(3-methyl-1,2-oxazol-5-yl)-7-oxo-6,7-dihydro-1H-pyrrolo[2,3-c]pyridin-4-yl]spiro[cyclopropane-1,3′-indol]-2′(1H)-one]"
12,1490,"CN1C(=O)[C@@]2(C[C@H]2c2cn(C)c(=O)c3[nH]c(-c4nccn4C)cc23)c2ccccc21 (racemic) [Example 41, rac-(1R,2S)-1′-methyl-2-[6-methyl-2-(1-methyl-1H-imidazol-2-yl)-7-oxo-6,7-dihydro-1H-pyrrolo[2,3-c]pyridin-4-yl]spiro[cyclopropane-1,3′-indol]-2′(1H)-one]"
13,2820,"CN1C(=O)[C@@]2(C[C@H]2c2cn(C)c(=O)c3[nH]c(-c4ncco4)cc23)c2ccccc21 (racemic) [Example 42, rac-(1R,2S)-1′-methyl-2-[6-methyl-2-(1,3-oxazol-2-yl)-7-oxo-6,7-dihydro-1H-pyrrolo[2,3-c]pyridin-4-yl]spiro[cyclopropane-1,3′-indol]-2′(1H)-one]"
14,1840,"CN1C(=O)[C@@]2(C[C@H]2c2cn(C)c(=O)c3[nH]c(-c4cn(C)cn4)cc23)c2ccccc21 (racemic) [Example 43, rac-(1R,2S)-1′-methyl-2-[6-methyl-2-(1-methyl-1H-imidazol-4-yl)-7-oxo-6,7-dihydro-1H-pyrrolo[2,3-c]pyridin-4-yl]spiro[cyclopropane-1,3′-indol]-2′(1H)-one]"
15,1300,"CN1C(=O)[C@@]2(C[C@H]2c2cn(C)c(=O)c3[nH]c(-c4cncn4C)cc23)c2ccccc21 (racemic) [Example 44, rac-(1R,2S)-1′-methyl-2-[6-methyl-2-(1-methyl-1H-imidazol-5-yl)-7-oxo-6,7-dihydro-1H-pyrrolo[2,3-c]pyridin-4-yl]spiro[cyclopropane-1,3′-indol]-2′(1H)-one]"
16,> 13000,"CN1C(=O)[C@@]2(C[C@H]2c2cn(C)c(=O)c3[nH]c(-c4ccccn4)cc23)c2ccccc21 (racemic) [Example 45, rac-(1R,2S)-1′-methyl-2-[6-methyl-7-oxo-2-(pyridin-2-yl)-6,7-dihydro-1H-pyrrolo[2,3-c]pyridin-4-yl]spiro[cyclopropane-1,3′-indol]-2′(1H)-one]"
17,> 13000,"Cc1ccnc(-c2cc3c([C@@H]4C[C@@]45C(=O)N(C)c4ccccc45)cn(C)c(=O)c3[nH]2)c1 (racemic) [Example 46, rac-(1R,2S)-1′-methyl-2-[6-methyl-2-(4-methylpyridin-2-yl)-7-oxo-6,7-dihydro-1H-pyrrolo[2,3-c]pyridin-4-yl]spiro[cyclopropane-1,3′-indol]-2′(1H)-one]"
18,2620,"CN1C(=O)[C@@]2(C[C@H]2c2cn(C)c(=O)c3[nH]c(-c4cccnc4)cc23)c2ccccc21 (racemic) [Example 47, rac-(1R,2S)-1′-methyl-2-[6-methyl-7-oxo-2-(pyridin-3-yl)-6,7-dihydro-1H-pyrrolo[2,3-c]pyridin-4-yl]spiro[cyclopropane-1,3′-indol]-2′(1H)-one]"
19,1280,"CN1C(=O)[C@@]2(C[C@H]2c2cn(C)c(=O)c3[nH]c(-c4ccncc4)cc23)c2ccccc21 (racemic) [Example 50, rac-(1R,2S)-1′-methyl-2-[6-methyl-7-oxo-2-(pyridin-4-yl)-6,7-dihydro-1H-pyrrolo[2,3-c]pyridin-4-yl]spiro[cyclopropane-1,3′-indol]-2′(1H)-one]"
20,4680,"CN1C(=O)[C@@]2(C[C@H]2c2cn(C)c(=O)c3[nH]c(-c4ccnc(C(F)(F)F)c4)cc23)c2ccccc21 (racemic) [Example 51, rac-(1R,2S)-1′-methyl-2-{6-methyl-7-oxo-2-[2-(trifluoromethyl)pyridin-4-yl]-6,7-dihydro-1H-pyrrolo[2,3-c]pyridin-4-yl}spiro[cyclopropane-1,3′-indol]-2′(1H)-one]"
21,1080,"CN1C(=O)[C@@]2(C[C@H]2c2cn(C)c(=O)c3[nH]c(-c4cncnc4)cc23)c2ccccc21 (racemic) [Example 54, rac-(1R,2S)-1′-methyl-2-[6-methyl-7-oxo-2-(pyrimidin-5-yl)-6,7-dihydro-1H-pyrrolo[2,3-c]pyridin-4-yl]spiro[cyclopropane-1,3′-indol]-2′(1H)-one]"
22,3420,"CN1C(=O)[C@@]2(C[C@H]2c2cn(C)c(=O)c3[nH]c(-c4ccncn4)cc23)c2ccccc21 (racemic) [Example 55, rac-(1R,2S)-1′-methyl-2-[6-methyl-7-oxo-2-(pyrimidin-4-yl)-6,7-dihydro-1H-pyrrolo[2,3-c]pyridin-4-yl]spiro[cyclopropane-1,3′-indol]-2′(1H)-one]"
23,2760,"CN1C(=O)[C@@]2(C[C@H]2c2cn(C)c(=O)c3[nH]c(-c4ccnnc4)cc23)c2ccccc21 (racemic) [Example 56, rac-(1R,2S)-1′-methyl-2-[6-methyl-7-oxo-2-(pyridazin-4-yl)-6,7-dihydro-1H-pyrrolo[2,3-c]pyridin-4-yl]spiro[cyclopropane-1,3′-indol]-2′(1H)-one]"
